Source: patent US20240335462A1, “SULFUR/PHOSPHORUS-CONTAINING ARYL COMPOUND AND APPLICATION THEREOF” (MEDSHINE DISCOVERY INC., priority 2021, published 2024)
pIC50: −log10 of the molar value.

Legend:
[1] = molecular target: TYK2 JH2 pseudokinase (Homo sapiens, UniProt P29597); experiment: Inhibitory activity on TYK2 JH2 pseudokinase (TR-FRET); assay type: binding; details: 60 min room temperature, read-out: Kinase half maximal inhibitory concentration IC50 TYK2 JH2
Protocol: In this experiment, the inhibitory effect of compounds on TYK2 JH2 pseudokinase was tested using the method of time-resolved fluorescence resonance energy transfer (TR-FRET). In the experiment, TYK2 JH2 or JAK1 JH2 pseudokinase can simultaneously bind to fluorescently labeled Tracer and Tb antibody to form a “sandwich structure”. Tb antibody, functioning as a fluorescent donor, produces fluorescence at a wavelength of 495 nm under the excitation of light at a specific wavelength. Tracer, functioning as a fluorescent acceptor, can receive fluorescence at a wavelength of 495 nm and thus produce fluorescence at a wavelength of 520 nm, i.e., a time-resolved fluorescence resonance energy transfer (TR-FRET) signal, only when it is within the “sandwich structure”, i.e., when it is sufficiently close to Tb antibody. When the compound is added to compete with Tracer for binding to the pseudokinase, the binding of Tracer decreases, leading to a weakened TR-FRET signal. The inhibitory activity of the compound binding to the pseudokinase can be reflected by the ratio of signal values at 520 nm/495 nm.
The working solution consists of the following components: HEPES (pH 7.5) at a final concentration of 20 mM; MgCl2 at a final concentration of 10 mM; Brij-35 at a final concentration of 0.015%; DTT at a final concentration of 2 mM; and BSA at a final concentration of 50 μg/mL.
• a) The compound was dissolved in DMSO to achieve a storage concentration of 10 mM. • b) Various concentrations of the compound, 200 times the final concentration, were prepared in a compound dilution plate and transferred to an Echo plate. • c) The Echo instrument was used to transfer 150 nL of the compound from the Echo plate to a 384-well experimental plate. • d) 5 μL of TYK2 JH2 kinase, at three times the final concentration, was added to the 384-well experimental plate. • e) 5 μL of Tb, at three times the final concentration, was added to the 384-well experimental plate. • f) 5 μL of Tracer, at three times the final concentration, was added to the 384-well experimental plate. • g) The plate was centrifuged for 30 seconds and then incubated at room temperature for 60 minutes. • h) The fluorescence signal values at 520 nm/495 nm were measured using an Envision plate reader (PerkinElmer).
Data analysis was performed using the XL-Fit software to determine the IC50 of the compounds.

[2] = test system: JAK1/2 signaling pathway (IL-6/pSTAT1); experiment: IL-6-stimulated pSTAT1 in human PBMC (flow cytometry); assay type: cell-based; details: CD4-positive cells
Protocol: (§1) The purpose of this experiment was to detect the inhibitory effect of the compounds on cytokine-activated JAK-STAT signaling pathways in human peripheral blood mononuclear cells (PBMC).
(§2) • a) PBMCs frozen in liquid nitrogen were thawed in a 37° C. water bath, and culture medium was added. The mixture was then centrifuged at 320 g for 3 minutes. • b) Cells were resuspended in culture medium, counted, and the cell concentration was adjusted to 5×10^5 cells/mL with culture medium. Subsequently, the cell suspension was inoculated into […] 96-well round-bottom plates, with 200 μL per well. The plates were incubated at 37° C. with 5% CO2 for 90 minutes. • c) Different concentrations of the test compound (starting at 2 μM, 5-fold serial dilution, a total of 8 concentrations) were added, followed by incubation at 37° C. with 5% CO2 for 30 minutes. • d) IL-6 (final concentration at 20 ng/mL) was added to the first round-bottom plate and incubated at 37° C. with 5% CO2 for 15 minutes. • e) IFNα (final concentration at 1000 U/mL) was added to the second round-bottom plate and incubated at 37° C. with 5% CO2 for 15 minutes. • f) IL-2 (final concentration at 4 ng/mL) was added to the third round-bottom plate and incubated at 37° C. with 5% CO2 for 15 minutes. • g) GM-CSF (final concentration at […]) was added to the fourth round-bottom plate and incubated at 37° C. with 5% CO2 for 15 minutes. • h) Cells were centrifuged at 320 g for 3 minutes, and each well was washed once with 200 μL of staining solution. • i) 50 μL of staining solution containing human CD33 antibody was added to each well of the GM-CSF-stimulated culture plate, and 50 μL of staining solution containing CD4 antibody was added to the remaining three culture plates. The staining was performed at 4° C. for 30 minutes. The cells were washed twice with the staining solution. • j) 100 μL of fixation buffer was added to each well, and the cells were fixed at 4° C. for 15 minutes. The cells were washed once with the staining solution. • k) 100 μL of permeabilization buffer was added to each well, and the cells were permeabilized at 4° C. for 20 minutes. The cells were washed twice with the staining solution. • l) 50 μL of staining solution containing human pSTAT1 antibody was added to each well of the IL-6 and IFN-α-stimulated culture plates, and 50 μL of staining solution containing human pSTAT5 antibody was added to each well of the IL-2 and GM-CSF-stimulated culture plates. The staining was performed at room temperature for 15 minutes. The cells were washed twice with the staining solution. • m) The cells were resuspended in 150 μL of staining solution. • n) The fluorescence intensity of pSTAT1 (stimulated by IL-6 and IFN-α) or pSTAT5 (stimulated by IL-2) in CD4-positive cells was detected using flow cytometer. The fluorescence intensity of pSTAT5 (stimulated by GM-CSF) in CD33-positive cells was also detected.
(§3) Data analysis was performed using Flowjo software to determine the IC50 of the compounds.

[3] = test system: TYK2 signaling pathway (IFN-α/pSTAT1); experiment: IFN-α-stimulated pSTAT1 in human PBMC (flow cytometry); assay type: cell-based; details: CD4-positive cells
Protocol: as §1, §2, §3

Sequence of TYK2 JH2 pseudokinase (P29597 589-875 limits assumed): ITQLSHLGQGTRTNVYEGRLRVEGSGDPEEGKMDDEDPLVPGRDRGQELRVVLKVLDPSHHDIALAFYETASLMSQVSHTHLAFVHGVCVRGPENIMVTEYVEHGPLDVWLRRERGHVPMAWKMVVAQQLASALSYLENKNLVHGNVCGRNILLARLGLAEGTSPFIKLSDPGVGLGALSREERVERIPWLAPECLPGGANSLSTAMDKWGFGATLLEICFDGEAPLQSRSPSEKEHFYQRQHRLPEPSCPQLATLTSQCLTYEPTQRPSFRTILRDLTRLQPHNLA

## CNC(=O)c1nnc(NC(=O)C2CC2)cc1Nc1cccc(-c2ncc(S(=N)(=O)C(C)C)cn2)c1OC (single isomer, unassigned) [WX-011A]
[1]
  pIC50: 10.00
[2]
  pIC50: 7.06
[3]
  pIC50: 8.59

## CNC(=O)c1nnc(NC(=O)C2CC2)cc1Nc1cccc(-c2ncc(S(=N)(=O)C(C)C)cn2)c1OC (single isomer, unassigned) [WX-011B]
[1]
  pIC50: 10.10
[2]
  pIC50: 7.14
[3]
  pIC50: 8.62

## CNC(=O)c1nnc(NC(=O)C2CC2)cc1Nc1cccc(-c2ccc(S(=N)(=O)C(C)C)cn2)c1OC (single isomer, unassigned) [WX-012A]
[1]
  pIC50: 10.10
[2]
  pIC50: 7.28
[3]
  pIC50: 8.70

## CNC(=O)c1nnc(NC(=O)C2CC2)cc1Nc1cccc(-c2ccc(S(=N)(=O)C(C)C)cn2)c1OC (single isomer, unassigned) [WX-012B]
[1]
  pIC50: 10.10
[2]
  pIC50: 7.49
[3]
  pIC50: 8.82

## CNC(=O)c1cnc(NC(=O)C2CC2)cc1Nc1cccc(-c2ccc(S(=O)(=O)C(C)C)cn2)c1OC.Cl [Hydrochloride of WX-020]
[1]
  pIC50: 10.10
[2]
  pIC50: 6.79
[3]
  pIC50: 8.89

## CNC(=O)c1cnc(NC(=O)C2CC2)cc1Nc1cccc(-c2ncc(S(=O)(=O)C(C)C)cn2)c1OC [WX-019]
[1]
  pIC50: 10.05
[2]
  pIC50: 7.00
[3]
  pIC50: 8.82

## CNC(=O)c1nnc(NC(=O)C2CC2)cc1Nc1cccc(-c2ccc(P(=O)(C3CC3)C3CC3)cn2)c1OC [WX-021]
[1]
  pIC50: 10.10
[2]
  pIC50: 7.20
[3]
  pIC50: 8.68
